According to patent US8058507B2, “HOPM1 mediated disease resistance to Pseudomonas syringae in Arabidopsis” (priority 2007, dated 2011):

B1: HopM11-300: N-terminal protective fragment of HopM1, amino acids 1-300 (SEQ ID NO:82) (protein, listed as Pseudomonas syringae)
chain: MISSRIGGAGGVELSRVNQQHDTVPAQTAHPNAVTAGMNPPLTPDQSGSHATESSSAGAARLNVAARHTQLLQAFKAEHGTAPVSGAPMISSRAALLIGSLLQAEPLPFEVMAEKLSPERYQLKQFQGSDLQQRLEKFAQPGQIPDKAEVGQLIKGFAQSVADQLEHFQLMHDASPATVGQHAKADKATLAVSQTALGEYAGRASKAIGEGLSNSIASLDEHISALDLTLQDAEQGNKESLHADRQALVDAKTTLVGLHADFVKSPEAKRLASVAAHTQLDNVVSDLVTARNTVGGWKGA
modifications: 6xHis tag

Key:
Pst DC3000 ΔCEL mutant = assay: BFA treatment of bacteria-infiltrated detached leaves: bacterial multiplication and disease symptoms; format: in vivo, Pseudomonas syringae
Protocol: (§1) A standard enumeration procedure involves pathogen inoculation, using any one of described methods, supra, followed by assaying bacterial populations present within host tissues at regular intervals. The population present within the tissue was calculated based on the dilution factor divided by the amount of tissue present in each sample. Plotting log (culturable bacterial number/cm^2 leaf tissue) against time (usually in days) after pathogen inoculation produced an unfitted curve, i.e. growth curve. For a review of methods, see, Katagiri et al., in The Arabidopsis Book, Somerville, Meyerowitz, Eds. (American Society of Plant Biologists, Rockville, Md., 2002), website://dx.doi.org/10.1199/tab.0039; herein incorporated by reference.
(§2) Leaves were harvested and surface sterilized as follows: 1) whole leaves were removed from a host plant and gently mixed in a 70% ethanol solution for 1 minute. Leaves were blotted briefly on paper towels then rinsed in sterile distilled water for 1 minute, then blotted dry on paper towels. Leaf disks were excised from leaves with a 0.5 cm^2 or smaller cork borer, depending on the size of the sample leaves; 2) leaf disks from the leaves of 2 or more independent replicate plants were pooled for a single tissue sample and placed in a 1.5-mL microfuge tube with 100 μL sterile distilled water, the amount of leaf tissue per tube was recorded as leaf surface area. Three or more samples were harvested for each time point. Steps 1 and 2 were repeated for each sample; 3) Tissue samples were ground with a microfuge tube plastic pestle, by hand or by using a small hand-held electric drill. […] The number of serial dilutions necessary to get countable colonies were determined for each sample, however dilutions to 10^−7 were usually sufficient for any bacterial strain; 7) The samples were plated on the appropriate medium (e.g., Low salt Luria Bertani) supplemented with the necessary antibiotics to select for the specific inoculated bacterial strain. Plating was done in the traditional way (100 μL of a single sample was spread on a single plate) or several 10 μL aliquots of the 1:10 serial dilutions were spotted on to a single plate and allowed to dry onto the surface; and 8) Plates were placed at 30° C. for approximately 2 days with a cfu value determined for each dilution of each sample. […]
(§3) Leaves were infiltrated with 1×10^6 cfu/ml of bacteria, detached, and placed in microtiter wells with petioles immersed in the 36 μM BFA (Sigma Co.) solution. […] Bacterial populations and disease symptoms were determined on day 0 and day three.

Pst DC3000 = assay: as above; format: in vivo, Pseudomonas syringae; conditions: Col-0 gl1 plants treated with water or BFA (36 μM)
Protocol: as §1, §2, §3

hrcC mutant = assay: as above; format: in vivo, Pseudomonas syringae; conditions: Col-0 gl1 plants treated with water or BFA (36 μM)
Protocol: as §1, §2, §3

AtMIN7-HA = target: T1, AtMIN7-HA (Arabidopsis thaliana, UniProt F4IXW2, DEL212-213/INS429[…]); assay: Protein pull-down assay in N. benthamiana leaves; format: binding; conditions: Ni-NTA pull-down, immunoblot
T1 construct: expressed in transfected cells; host or cells: Nicotiana benthamiana leaves, Agrobacterium tumefaciens C58C1 co-infiltration (pBI121-AtMIN or pBAR1-AtMIN, CaMV 35S promoter)
From the text: N. benthamiana plants were transiently transformed with HopM1 and AtMIN proteins. In brief, fully expanded N. benthamiana leaves were co-infiltrated with Agrobacterium tumefaciens C58 C1 (for an example of co-infiltration techniques, see, Hellens, et al. (2005) Plant Methods, 1:13; herein incorporated by reference) comprising plasmids and genes described herein (for example, see, Bechtold, et al. (1993) Comptes Rendus De L Academie Des Sciences Serie Iii-Sciences De La Vie-Life Sciences 316(10):1194-1199; herein incorporated by reference).
Protein pull-down analysis methods: N. benthamiana leaf discs were homogenized in lysis buffer (50 mM Tris-HCl pH=8.0, 250 mM NaCl, 10 mM β-mercaptoethanol, 1% Triton X100, 1 mM PMSF, plant protease inhibitor cocktail [Sigma Co.]). Total protein extracts were collected after centrifugation of the homogenate at 20,000-×g for 15 min at 4° C. to remove insoluble materials. The supernatant was incubated with Ni-NTA agarose beads (Qiagen) with gentle shaking for 1 hour at 4° C., followed by centrifugation at 15,000-×g for 1 min to pull down 6×His-HopM1 and its interacting proteins. Beads were then washed three times with lysis buffer and resuspended in 1×SDS-PAGE sample buffer for SDS-PAGE gel and/or immunoblot analyses. […] AtMIN10-HA was detected using the HA epitope antibody.

[1] = test system: Pst DC3000 ΔCEL mutant-pORF43 bacteria; assay: Bacterial multiplication and disease symptoms in HopM1 transgenic Arabidopsis plants; format: in vivo, Pseudomonas syringae
Protocol: Following inoculation, infected plants were monitored daily over a 3- to 4-day period for symptom development and bacterial multiplication. For experiments described in FIGS. 1 and 5, plants were sprayed with 30 μM dexamethasone (DEX) 24 h before bacterial inoculation (1×10^6 cfu/ml).
as §2, with “point.” for “point. Steps 1 and 2 were repeated for each sample; 3) Tissue samples were ground with a microfuge tube plastic pestle, by hand or by using a small hand-held electric drill.”, “strain.” for “strain. Plating was done in the traditional way (100 μL of a single sample was spread on a single plate) or several 10 μL aliquots of the 1:10 serial dilutions were spotted on to a single plate and allowed to dry onto the surface; and 8) Plates were placed at 30° C. for approximately 2 days with a cfu value determined for each dilution of each sample.”

[2] = test system: Arabidopsis Y2H cDNA library; assay: Yeast two-hybrid (Y2H) screening with HopM1 baits; format: binding; conditions: protein used as bait
From the text: A LexA-based yeast two-hybrid system was used for screening an Arabidopsis Y2H cDNA library using full-length HopM1 and the dominant-negative domain of HopM1 (HopM11-300) as bait, in separate screenings. This system was based upon a pGilda Lex A expression vector (CLONTECHniques, OCTOBER 1999 p. 26-27, Clontech Laboratories Inc.; herein incorporated by reference in its entirety) for expressing HopM1 proteins in combination with a lacZ reporter gene on a separate plasmid that autonomously replicated in yeast (CLONTECHniques, OCTOBER 1999 p. 26-27, Clontech Laboratories Inc.; herein incorporated by reference in its entirety), see below for addition information (see, MATCHMAKER LexA Two-Hybrid System Catalog #K1609-1 and MATCHMAKER LexA Libraries User Manual (PT3040-1) Version It PR67300 and (Yeast Protocols Handbook, Protocol # PT3024-1 Version # PR13103, published 14 Mar. 2001; herein incorporated by reference in its entirety).
hopM1 DNA fragments were amplified by PCR using the primers listed below and standard PCR procedures then fragments were isolated and cloned into a bait vector pGilda Lex A (resistance to ampicillin (100 μg/ml) to E. coli hosts; Protocol # PT3147-5; Version # PR81829; Clontech Laboratories, Inc.; herein incorporated by reference in its entirety). […]

T1 sequence (F4IXW2 with tags, fused parts or gaps DEL212-213/INS429[withheld]): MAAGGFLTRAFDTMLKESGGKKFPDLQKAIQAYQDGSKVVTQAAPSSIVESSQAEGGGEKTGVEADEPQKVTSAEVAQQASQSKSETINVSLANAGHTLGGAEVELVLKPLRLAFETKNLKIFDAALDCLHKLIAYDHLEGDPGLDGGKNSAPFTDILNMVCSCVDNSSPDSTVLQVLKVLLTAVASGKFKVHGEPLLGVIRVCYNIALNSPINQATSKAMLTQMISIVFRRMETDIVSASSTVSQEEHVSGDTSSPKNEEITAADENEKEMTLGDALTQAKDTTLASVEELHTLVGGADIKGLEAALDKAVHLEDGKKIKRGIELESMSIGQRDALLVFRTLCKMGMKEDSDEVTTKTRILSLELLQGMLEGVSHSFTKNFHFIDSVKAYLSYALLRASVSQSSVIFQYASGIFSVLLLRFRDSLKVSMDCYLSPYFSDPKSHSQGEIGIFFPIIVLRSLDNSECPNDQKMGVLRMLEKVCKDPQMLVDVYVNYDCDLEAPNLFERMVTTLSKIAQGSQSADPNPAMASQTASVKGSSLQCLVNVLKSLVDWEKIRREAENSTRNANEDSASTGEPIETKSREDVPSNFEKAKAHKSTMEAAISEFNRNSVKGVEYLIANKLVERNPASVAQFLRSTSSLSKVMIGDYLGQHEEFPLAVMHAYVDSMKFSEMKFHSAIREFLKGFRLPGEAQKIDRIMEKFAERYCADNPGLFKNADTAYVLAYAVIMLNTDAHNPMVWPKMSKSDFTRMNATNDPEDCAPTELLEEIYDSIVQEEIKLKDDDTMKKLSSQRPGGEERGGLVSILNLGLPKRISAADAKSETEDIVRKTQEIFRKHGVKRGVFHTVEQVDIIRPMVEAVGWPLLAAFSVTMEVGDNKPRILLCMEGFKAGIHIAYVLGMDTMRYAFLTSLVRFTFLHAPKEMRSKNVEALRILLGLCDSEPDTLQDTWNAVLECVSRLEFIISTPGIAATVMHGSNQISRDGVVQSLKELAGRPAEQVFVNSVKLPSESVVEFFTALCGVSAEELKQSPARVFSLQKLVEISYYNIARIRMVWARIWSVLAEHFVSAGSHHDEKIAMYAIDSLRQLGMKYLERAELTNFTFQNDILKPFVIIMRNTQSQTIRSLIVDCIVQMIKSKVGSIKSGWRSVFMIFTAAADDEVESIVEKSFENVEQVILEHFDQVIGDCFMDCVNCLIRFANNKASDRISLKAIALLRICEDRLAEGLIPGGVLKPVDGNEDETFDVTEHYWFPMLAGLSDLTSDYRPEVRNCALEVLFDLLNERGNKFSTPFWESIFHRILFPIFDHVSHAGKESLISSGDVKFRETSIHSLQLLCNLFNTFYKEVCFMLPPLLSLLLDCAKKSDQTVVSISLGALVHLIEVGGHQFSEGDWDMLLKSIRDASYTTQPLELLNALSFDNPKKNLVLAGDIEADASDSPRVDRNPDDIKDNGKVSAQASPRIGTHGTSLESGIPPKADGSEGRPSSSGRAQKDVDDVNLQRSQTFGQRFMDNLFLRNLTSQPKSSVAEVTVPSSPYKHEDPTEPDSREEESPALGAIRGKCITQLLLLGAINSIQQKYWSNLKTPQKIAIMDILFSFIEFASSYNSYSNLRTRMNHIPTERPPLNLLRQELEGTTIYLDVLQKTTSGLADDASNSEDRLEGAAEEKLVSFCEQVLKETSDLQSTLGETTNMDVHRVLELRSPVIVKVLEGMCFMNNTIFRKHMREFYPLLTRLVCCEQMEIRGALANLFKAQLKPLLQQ

Row | Molecule | virulence (both multiplication and disease symptoms) (Pst DC3000 ΔCEL mutant; 36 μM BFA, wild-type Col-0 gl1 plants, day three) | restoration of the virulence of the ΔCEL mutant, compared with AtMIN7 KO plants (Pst DC3000 ΔCEL mutant; BFA-treated leaves) | multiplication or disease symptoms (Pst DC3000) | multiplication or disease symptoms (hrcC mutant) | physical interaction with AtMIN7-HA (AtMIN7-HA) | effect on the function of full-length HopM1 delivered from the infecting bacteria ([1]; fragment expressed in transgenic Arabidopsis) | disease symptoms (necrosis and chlorosis) and bacterial multiplication ([1]; transgenic Arabidopsis vs Col-0 gl1 or plants expressing other truncated derivatives) | interactors recovered in Y2H screen [2]
1 | C[C@H]1CCC/C=C/[C@@H]2C[C@H](O)C[C@H]2[C@H](O)/C=C/C(=O)O1 [BFA, Brefeldin A] | significantly enhanced | greater than that in the AtMIN7 KO plants | no significant differences | no significant differences |  |  |  | 
2 | B1 |  |  |  |  | physical interaction | dominant-negative effect | significantly reduced | 21
